Assay results: paper PMC7430754, “Cloning and functional complementation of ten Schistosoma mansoni phosphodiesterases expressed in the mammalian host stages” (PLoS Neglected Tropical Diseases, 2020)

What was measured:
[1] = test system: T1, T. b. brucei 2T1 (parental wild type); experiment: microbe, parasite or virus in culture; design: species or system T. b. brucei 2T1 bloodstream form; Alamar blue (resazurin) viability of parental bloodstream-form trypanosomes, fluorescence; conditions: Trypanosoma brucei, 72 h, read-out: 2T1-WT EC50 (μM)
T1 construct: 2T1, bloodstream form
Procedure: Drug sensitivities were assessed using a modified version of the alamar blue assay described previously. Briefly, test drugs were serially diluted in 100 μl of complete HMI‐11 media across two rows of a white 96-well plate (Greiner, Stonehouse, UK). Bloodstream‐form trypanosome cultures were diluted in HMI‐11, and 100 μl was added to all wells to give a final cell density of 1 × 10^5 trypanosomes/ml. Plates were incubated for 48 h at 37°C/5% CO2, prior to the addition of 20 μl of 5 mM resazurin sodium salt (Sigma‐Aldrich, Gillingham, UK) in PBS, pH7.4. Plates were incubated for a further 24 h in the same conditions, before fluorescence was measured using a FLUOstar Optima fluorimeter (BMG Labtech, Aylesbury, UK) with excitation and emission filters of 544 nm and 590 nm, respectively. […] All EC50 values were determined at least three times independently.

TbrPDEB2 = biological target: T2, TbrPDEB2 (Trypanosoma brucei, UniProt Q38F42); experiment: alamar blue growth assay of T. brucei TbrPDEB1/B2 double knockout dependent on this PDE; format: cell-based; conditions: growth read-out of whole trypanosomes, not enzyme assay; HMI-11 medium, 37 °C, 48 h plus 24 h resazurin
T2 construct: gene Tb09.160.3630; full length, C-terminal 6Myc tag, expressed from rRNA locus in T. b. brucei 2T1 lacking endogenous TbrPDEB1/B2
Source text: alamar blue growth assay of T. brucei TbrPDEB1/B2 double knockout dependent on this PDE on TbrPDEB2

SmPDE4A = biological target: T3, SmPDE4A (Schistosoma mansoni, UniProt A0ACM8RGL1); experiment: as above; format: cell-based, Trypanosoma brucei; conditions: growth read-out of whole trypanosomes, not enzyme assay; HMI-11 medium, 37 °C, 48 h plus 24 h resazurin
T3 construct: gene PDE4A; full length 699 aa, codon-optimised, N-terminal first 70 aa of TbrPDEB1 as targeting tag, C-terminal GFP; expressed in T. b. brucei 2T1 lacking TbrPDEB1/B2
Source text: alamar blue growth assay of T. brucei TbrPDEB1/B2 double knockout dependent on this PDE on SmPDE4A

TbrPDEB1 = biological target: T4, TbrPDEB1 (Trypanosoma brucei, UniProt Q8WQX9); experiment: as above; format: cell-based; conditions: growth read-out of whole trypanosomes, not enzyme assay; HMI-11 medium, 37 °C, 48 h plus 24 h resazurin
T4 construct: gene PDEB1; full length, C-terminal 6Myc tag, expressed from rRNA locus in T. b. brucei 2T1 lacking endogenous TbrPDEB1/B2
Source text: alamar blue growth assay of T. brucei TbrPDEB1/B2 double knockout dependent on this PDE on TbrPDEB1

T2 sequence (Q38F42 entry or part of it): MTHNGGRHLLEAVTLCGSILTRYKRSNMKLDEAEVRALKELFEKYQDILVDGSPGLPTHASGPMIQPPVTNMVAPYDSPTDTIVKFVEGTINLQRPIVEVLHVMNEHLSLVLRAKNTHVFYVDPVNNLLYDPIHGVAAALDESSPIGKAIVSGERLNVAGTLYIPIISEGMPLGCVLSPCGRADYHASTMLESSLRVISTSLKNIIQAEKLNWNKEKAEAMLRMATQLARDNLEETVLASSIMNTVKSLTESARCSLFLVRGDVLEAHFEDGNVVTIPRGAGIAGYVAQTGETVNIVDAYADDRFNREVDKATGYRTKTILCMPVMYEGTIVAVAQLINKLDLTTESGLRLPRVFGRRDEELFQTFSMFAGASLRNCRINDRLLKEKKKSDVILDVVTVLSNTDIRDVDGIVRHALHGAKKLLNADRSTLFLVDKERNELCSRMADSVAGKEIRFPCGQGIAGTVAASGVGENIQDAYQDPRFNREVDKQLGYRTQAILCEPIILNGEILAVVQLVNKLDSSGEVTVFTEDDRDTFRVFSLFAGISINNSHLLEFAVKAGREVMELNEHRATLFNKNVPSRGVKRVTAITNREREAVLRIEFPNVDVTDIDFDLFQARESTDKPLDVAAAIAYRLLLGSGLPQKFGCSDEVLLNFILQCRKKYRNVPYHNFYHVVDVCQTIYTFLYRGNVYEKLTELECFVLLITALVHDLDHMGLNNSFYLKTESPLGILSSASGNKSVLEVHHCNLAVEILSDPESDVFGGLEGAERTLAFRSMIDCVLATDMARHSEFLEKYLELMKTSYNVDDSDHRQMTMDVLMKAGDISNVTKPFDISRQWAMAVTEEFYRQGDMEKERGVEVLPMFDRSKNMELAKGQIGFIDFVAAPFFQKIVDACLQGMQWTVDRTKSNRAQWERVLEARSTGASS
T4 sequence (Q8WQX9 entry or part of it): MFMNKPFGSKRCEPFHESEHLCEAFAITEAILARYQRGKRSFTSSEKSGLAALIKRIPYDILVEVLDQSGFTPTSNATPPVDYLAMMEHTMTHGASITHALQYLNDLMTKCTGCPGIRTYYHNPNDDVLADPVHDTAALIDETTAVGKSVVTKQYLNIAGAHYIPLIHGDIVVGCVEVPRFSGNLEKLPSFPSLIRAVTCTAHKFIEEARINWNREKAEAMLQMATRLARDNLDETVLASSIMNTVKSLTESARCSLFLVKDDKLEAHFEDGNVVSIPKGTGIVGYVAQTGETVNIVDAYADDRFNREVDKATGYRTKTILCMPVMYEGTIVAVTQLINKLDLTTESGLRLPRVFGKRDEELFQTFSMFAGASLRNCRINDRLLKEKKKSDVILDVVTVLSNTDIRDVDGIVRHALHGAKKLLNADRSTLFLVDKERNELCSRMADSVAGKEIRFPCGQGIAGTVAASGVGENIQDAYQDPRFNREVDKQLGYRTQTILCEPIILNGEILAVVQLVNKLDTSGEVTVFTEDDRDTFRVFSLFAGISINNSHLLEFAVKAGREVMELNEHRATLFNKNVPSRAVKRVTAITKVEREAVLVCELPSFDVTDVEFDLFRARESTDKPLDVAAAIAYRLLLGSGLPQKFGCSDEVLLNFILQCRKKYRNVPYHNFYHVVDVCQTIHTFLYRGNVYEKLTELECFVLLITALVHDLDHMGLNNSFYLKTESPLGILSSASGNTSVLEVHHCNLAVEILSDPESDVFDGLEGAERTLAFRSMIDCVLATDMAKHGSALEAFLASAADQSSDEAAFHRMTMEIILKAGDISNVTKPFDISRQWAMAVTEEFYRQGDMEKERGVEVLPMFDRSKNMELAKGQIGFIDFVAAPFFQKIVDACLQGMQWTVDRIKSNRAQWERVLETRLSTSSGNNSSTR

Row | Compound | EC50 [1] [µM] | dKO+TbrPDEB2 EC50 (TbrPDEB2) [nM] | dKO+SmPDE4A / EC50 (SmPDE4A) [nM] | dKO+TbrPDEB1 EC50 (TbrPDEB1) [nM]
1 | COc1cc2c(cc1OC)-c1cc(=Nc3c(C)cc(C)cc3C)n(C)c(=O)n1CC2 [Trequisin] | 33.2 ± 0.9 |  |  | 
2 | N=C(N)c1ccc(OCCCCCOc2ccc(C(=N)N)cc2)cc1 [Pentamidine] | 0.0012 ± 0.0002 |  |  | 
3 | COc1ccc(C2=NN(C3CCCCCC3)C(=O)[C@@H]3CC=CC[C@H]23)cc1OCCCCOc1ccc(-c2nn[nH]n2)cc1 [NPD-001] | 0.1 ± 0.015 | 84 ± 18 | 24 ± 3 | 
4 | COc1ccc(C2=NN(C3CCN(C(=O)CN4C(=O)CC(C)(C)CC4=O)CC3)C(=O)[C@@H]3CC=CC[C@H]23)cc1OC [NPD-226] | 0.16 ± 0.01 | 82 ± 9 | 40 ± 4 | 290 ± 110
